Data reported in patent US12195748B2, “Delivery across cell plasma membranes” (Avectas Limited, priority 2014, dated 2025).
Entries after “also recorded” stand apart in the source; their conditions may differ.

Legend:
Jurkat cells = assay: Spray delivery into Jurkat suspension cells; assay type: cell-based; conditions: spray after removal of supernatant
Method: In this example, the delivery method across cell types was evaluated. […] The cell suspension was placed into a porous cell culture plate insert and a brief gentle vacuum of approximately −0.5 to −0.68 bar was applied for 20-45 sec to remove supernatant before the cells were sprayed (FIG. 41A and FIG. 42).

A549 cells [1] = assay: Spray-mediated delivery of payloads to A549 cells (fluorescence microscopy, flow cytometry); assay type: cell-based, human
Method: Each well of the plate was treated as follows: cell culture medium was removed from the well using a micropipette. Optionally, the well was rinsed twice with 250 μL phosphate buffered saline (PBS) using a micropipette. 20 μL of Solution A containing molecules to be delivered was delivered to the cells using the atomizer. The plate was incubated at room temperature for a period of 30 seconds to 2 minutes depending on the size of the molecule to be delivered, following which 250 μL of Solution B was added to the well using a micropipette. The plate was then incubated at room temperature for 30 seconds, at which time Solution B was removed from the well using a micropipette. 500 μL of culture medium was added to the well using a micropipette. The cells were then returned to a humidified atmosphere with 5% CO^2 at 37° C.
Fluorescence Microscopy. Fluorescein isothiocyanate (FITC)- and DyLight Phosphoramidite (DY547)-labelled molecules were used in accordance with the manufacturer's instructions. Labelled molecules to be delivered to the cells were added to Solution A and delivered to cells as described above herein. Following delivery, the plate was placed onto the stage of a fluorescent microscope (Olympus CKX 41) and the cells were viewed using filters to visualize fluorescence. Photomicrographs were acquired.
Flow Cytometry. […] The cell suspension was loaded into a flow cytometer [Accuri Flow Cytometyer, BD Biosciences] and the fluorescence was analyzed according to manufacturer's instruction. […]

A549 cells [2] = assay: Micropipette-mediated delivery of payloads to A549 cells (uptake); assay type: cell-based, human; conditions: 24-well plates
Method: FIG. 19 is a graph illustrating Micropipette-mediated delivery of payloads in either 200 μl or 20 μl delivery solution to A549 cells in 24-well plates. Uptake efficiency was measured by flow cytometry (5% m bar) and toxicity was measured by lactate dehydrogenase (LDH) release compared to lysed cells positive control.
Cells were seeded into 24-well plates on Day 0 such that they were 80-90% confluent on Day 1 when delivery was carried out. […] Cells were incubated for 2 min at room temperature (RT) to facilitate uptake. To further facilitate uptake and prevent cell dehydration, 200 μl 0.5×-PBS was then added and cells were incubated for a further 30 sec. This solution was then removed and 400 μl culture medium was added. The cells were then analyzed by fluorescence microscopy.

cells = assay: Delivery of molecules to cells, spray apparatus versus micropipette (Examples 2-12); assay type: cell-based
From the text: Delivery of Molecules. An intranasal mucosal atomization device commercially available from LMA Teleflex of NC, USA under catalogue number MAD300 and including an atomizer emitter was set up as follows: the atomizer emitter was positioned 31 mm from the base of the 24-well plate and above the center point of each circular well of the plate. The atomizer emitter was adjusted to allow a pressure of 1.5 bar. A timer was utilized to dispense spray from the atomizer emitter for a period of 1 second. The atomizer emitter was primed by rinsing three times with Solution A containing molecules to be delivered.
Each well of the plate was treated as follows: cell culture medium was removed from the well using a micropipette. Optionally, the well was rinsed twice with 250 μL phosphate buffered saline (PBS) using a micropipette. 20 μL of Solution A containing molecules to be delivered was delivered to the cells using the atomizer. The plate was incubated at room temperature for a period of 30 seconds to 2 minutes depending on the size of the molecule to be delivered, following which 250 μL of Solution B was added to the well using a micropipette. The plate was then incubated at room temperature for 30 seconds, at which time Solution B was removed from the well using a micropipette. 500 μL of culture medium was added to the well using a micropipette. […]
Fluorescence Microscopy. […] Following delivery, the plate was placed onto the stage of a fluorescent microscope (Olympus CKX 41) and the cells were viewed using filters to visualize fluorescence. […]
Flow Cytometry. […] The cell suspension was loaded into a flow cytometer [Accuri Flow Cytometyer, BD Biosciences] and the fluorescence was analyzed according to manufacturer's instruction.
Cell Viability. Following delivery, cell viability was assessed using the CellTiter 96® AQueous One Solution Cell Proliferation Assay (MTS) (Promega) according to the manufacturer's instructions. […] 100 μL of solution was removed from the well and placed into a 96-well plate and absorbance was read at 450 nm using a GloMax 96 Microplate luminometer [Promega].

A549 cells [3] = assay: Incubation of A549 cells in S Buffer (Medepalli conditions); assay type: cell-based, human; conditions: 5 min at 4° C.
From the text: A vector-free delivery method was developed based on reversible permeabilisation that would facilitate delivery of payloads into cells in a manner that would retain cell viability and payload functionality. As other groups have done, the following hypothesis was utilized: firstly, permeabilisation could be induced by chemical modification of the cell membrane; secondly, delivery could be enhanced via osmotic pressure brought about by using a hypotonic delivery solution whereby influx of water into the permeabilised cells facilitated influx of a payload and thirdly, cell survival could be enhanced if the hypotonic delivery solution was also buffered and physiological. Based on initial observations, further hypotheses were developed and refined as described later here. For chemical permeabilisation, the most common permeabilising agents are detergents which interact with certain components in cell membranes to create holes (Hapala, I., Crit Rev. Biotech. 1997; 17(2): 105-22). […] (Medepalli K. et al., Nanotechnology 2013; 24(20)). In some examples, potassium acetate is replaced with ammonium acetate in the “S” buffer. They also stated that delivery could be enhanced by adding saponin to the solution. […] Organic solvents such as alcohols can permeabilise cells by dissolving lipid from the cell membrane. […]

CHO cells = assay: Spray delivery of labelled proteins into CHO cells; assay type: cell-based, Chinese hamster; conditions: for delivery of labelled protein into cells: FITC or Alexa-488 label
From the text: A notable application of delivery technology is the intracellular delivery of proteins. Proteins are a very diverse group in terms of their size, shape and chemistry and few methods are currently available for efficient delivery of these molecules. A broad range of proteins of increasing sizes from 18.3 kDa to 443 kDa were labeled with either FITC or Alexa-488 and their delivery by spraying was examined. […] A general trend towards declining delivery efficiencies with increasing size of protein (FIG. 44) was observed.

[4] = DAPI, phallotoxin and MitoTracker Red together

N=C(N)c1ccc(-c2cc3ccc(C(=N)N)cc3[nH]2)cc1 [DAPI, 4′,6-diamidino-2-phenylindole]
delivery to suspension cells (Jurkat cells): successfully delivered
co-delivery into cells (A549 cells [1]; 10-kDa dextran-Alexa488 and DAPI together): successfully co-delivered
co-delivery into cells (A549 cells [1]; [4]): successfully co-delivered

ClCc1ccc(C2=c3cc4c5c(c3Oc3c2cc2c6c3CCCN6CCC2)CCC[N+]=5CCC4)cc1.[Cl-] [MitoTracker Red]
delivery to suspension cells (Jurkat cells): successfully delivered
co-delivery into cells (A549 cells [1]; [4]): successfully co-delivered

CC[N+](C)(CC)CCC[n+]1c(-c2ccccc2)c2cc(N)ccc2c2ccc(N)cc21.[I-].[I-] [PI, propidium iodide]
uptake viewed by fluorescent microscopy (A549 cells [2]; 20 μL delivery solution): apparent at the edge of the well but not in the center; also recorded: apparent in some areas of the well but not in others
uptake viewed by fluorescent microscopy (A549 cells [2]; 200 μL delivery solution): most cells immediately stained positive
uptake viewed by fluorescent microscopy (A549 cells [2]; 200 μL delivery solution, listed as Propidium iodide): uptake was visible throughout the cell population
delivery rate (percent of cells showing successful delivery), spray compared to micropipette (cells; Example 3, 150 μM, 20 or 40% ethanol): increases the delivery rate
delivery in viable cells (cells; Example 3, micropipette, 40% (v/v) ethanol): no delivery of molecules was detected in viable cells
simultaneous delivery of two molecules into the cell (cells; Example 4, spray, 25% ethanol, same matrix): results in delivery of the molecule into the cell

dextran
uptake (A549 cells [3]): did not observe uptake

ovalbumin: protein labelled with FITC and delivered into CHO cells
delivery of labelled protein into cells (CHO cells): successfully delivered
detection of delivered protein with anti-ovalbumin antibody (CHO cells; immunofluorescence): detected by immunofluorescence

B1: catalase: protein labelled with FITC and delivered into CHO cells (protein, UniProt P00432 2-527, looked up)
Catalase: ADNRDPASDQMKHWKEQRAAQKPDVLTTGGGNPVGDKLNSLTVGPRGPLLVQDVVFTDEMAHFDRERIPERVVHAKGAGAFGYFEVTHDITRYSKAKVFEHIGKRTPIAVRFSTVAGESGSADTVRDPRGFAVKFYTEDGNWDLVGNNTPIFFIRDALLFPSFIHSQKRNPQTHLKDPDMVWDFWSLRPESLHQVSFLFSDRGIPDGHRHMNGYGSHTFKLVNANGEAVYCKFHYKTDQGIKNLSVEDAARLAHEDPDYGLRDLFNAIATGNYPSWTLYIQVMTFSEAEIFPFNPFDLTKVWPHGDYPLIPVGKLVLNRNPVNYFAEVEQLAFDPSNMPPGIEPSPDKMLQGRLFAYPDTHRHRLGPNYLQIPVNCPYRARVANYQRDGPMCMMDNQGGAPNYYPNSFSAPEHQPSALEHRTHFSGDVQRFNSANDDNVTQVRTFYLKVLNEEQRKRLCENIAGHLKDAQLFIQKKAVKNFSDVHPEYGSRIQALLDKYNEEKPKNAVHTYVQHGSHLSAREKANL
modifications: FITC label
notes: protein labelled with FITC and delivered into CHO cells
delivery of labelled protein into cells (CHO cells): successfully delivered
